# Measurements reported in patent publication US20130059879A1, “Small Molecule Inhibitors of PFKFB3 and Glycolytic Flux and Their Methods of Use as Anti-Cancer Therapeutics” (UNIVERSITY OF LOUISVILLE RESEARCH FOUNDATION, INC., priority 2010, published 2013).
# Read-outs that look alike come from different tables or passages of the source.
# Tests used:
# [1] = Solubility in solvents and excipients, 1 hour at room temperature, HPLC; format: physicochemical; settings: thermodynamic from solid
# Experimental: Chemical properties of the compounds of the invention were investigated, including the solubility in several solvents and pharmaceutically accepted excipients. […] Briefly, selected compounds of the invention are dissolved in a small volume of the solvents/excipients of interest at room temperature over 1 hour in typically 1 ml and the concentration is measured by HPLC after filtration.
# U937 = assay: Cancer cell proliferation, Alamar Blue assay, 72 hours; format: cell-based; settings: Homo sapiens, U-937
# Calu-6 = assay: as above; format: cell-based; settings: Homo sapiens, Calu-6
# Summary of the method: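 Calu-6 human cancer cells were seeded at 2×10^5 cells/ml in 96 well plates. The next day, an equal volume of media containing the compounds at twice the intended concentration was added. After 72 hours of exposure, inhibition of proliferation was measured with the Alamar Blue assay, run in triplicate, and IC50 values were determined.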
# NCI-H82 = assay: as above; format: cell-based; settings: Homo sapiens, NCI-H82, read-out: IC50 NCl-H82
# Summary of the method: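 Proliferation of NCI-H82 cancer cells was assessed with the Alamar Blue assay. Cells were seeded into 96 well plates at 2×10^5 cells/ml, and the following day compounds were added at twice the indicated concentration in an equal volume of media. After 72 hours of exposure, IC50 values were determined from triplicate experiments.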
# MDA-MB-231 = assay: as above; format: cell-based; settings: Homo sapiens
# Jurkat = assay: as above; format: cell-based; settings: Homo sapiens, Jurkat
# Summary of the method: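 Jurkat cells were plated at 2×10^5 cells/ml in 96 well plates, and the next day test compounds at twice the indicated concentrations were added in an equal volume of media. After 72 hours of exposure, proliferation or killing of the cancer cells was assessed with the Alamar Blue assay. Experiments were done in triplicate.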
# HCT-116 = assay: as above; format: cell-based; settings: Homo sapiens, HCT-116
# [2] = Microsomal stability in human liver microsomes; format: in vitro ADME
# Pharmacokinetics in rats = format: in vivo; settings: male Sprague Dawley rats
# Experimental: The pharmacokinetic parameters for several compounds were determined in mice following IV (intravenous), IP (intraperitoneal), or PO (per os) administration, as well as in rats and dogs. A typical study design includes six Balbc male mice 7 to 8 weeks old. For instance, a dose of 10 mg/kg was administered IV using a 5% DMS0/90% Captisol (20% in water) solution or other pharmaceutically acceptable parenteral and oral formulations. Blood samples were collected at different intervals. Plasma samples were extracted and analyzed using an LC-MS/MS method. Similar protocols were used for the rats (Sprague Dawley rats) or dogs (beagles) PK studies; in the case of dogs PK studies, the number of animals per group was three.
# PFK-065 was dosed at 10 mg/kg in male Balbc mice; PFK-095 was dosed at 10 mg/kg in male Sprague Dawley rats; and PFK-112 dosed at 6 mg/kg in male beagle dogs.
# Jurkat cells = assay: Inhibition of 14C-2-deoxyglucose uptake; format: cell-based; settings: Homo sapiens, 3 hours
# Experimental: Inhibition of PFKFB3 results in inhibiting glycolysis. Several feedback or feedforward activation and inhibition mechanisms exist so that, by a feedback mechanism, inhibiting the activity of PFKFB3 may inhibit glucose uptake by cells. An assay was developed to determine if there was inhibition of glucose uptake following exposure to the compounds on the invention. Briefly, Jurkat cells were plated at 1×10^5/mL in RPM′ 1640 supplemented with 10% fetal bovine serum and 50 μg/mL gentamicin sulfate. Cells were immediately treated with vehicle or 5 μmol/L of the compound of the invention for 3 hours and subsequently placed in glucose-free RPMI 1640 for 30 min. ^14C-2-deoxyglucose (0.25 μCi/mL; Perkin Elmer) was added for an additional 60 min and cells were then washed three with ice-cold RPMI 1640 containing no glucose. Cell lysates were collected in 500 μL of 0.1% SDS, and scintillation counts (counts/min) were measured on 400 μL of lysate. Counts were normalized to protein concentration.
# PFKFB3 = molecular target: T1, PFKFB3 (Homo sapiens, UniProt Q16875); assay: Inhibition of recombinant PFKFB3 kinase activity (ADP Glow assay); format: biochemical; settings: 250 nM analog concentration; read-out: % Inhibition of PFKFB3 Enzymatic Activity
# T1 construct: GST
# T1 sequence (Q16875 whole entry, species assumed): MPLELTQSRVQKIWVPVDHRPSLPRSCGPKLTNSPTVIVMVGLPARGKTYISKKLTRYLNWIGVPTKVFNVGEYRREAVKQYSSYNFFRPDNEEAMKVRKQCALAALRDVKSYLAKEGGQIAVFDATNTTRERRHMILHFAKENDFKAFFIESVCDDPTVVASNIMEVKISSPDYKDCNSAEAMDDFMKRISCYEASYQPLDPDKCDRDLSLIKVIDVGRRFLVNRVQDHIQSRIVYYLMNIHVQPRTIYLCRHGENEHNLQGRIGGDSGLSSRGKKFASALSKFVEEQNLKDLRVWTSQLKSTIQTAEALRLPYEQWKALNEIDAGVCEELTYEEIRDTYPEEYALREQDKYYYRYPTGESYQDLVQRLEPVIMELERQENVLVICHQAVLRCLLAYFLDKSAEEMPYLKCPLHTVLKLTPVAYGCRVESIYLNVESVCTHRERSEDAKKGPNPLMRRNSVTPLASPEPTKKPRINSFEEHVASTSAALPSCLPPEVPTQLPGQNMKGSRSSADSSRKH
# Experimental: PFKFB3 was prepared by expression in E. coli and purified by GST column and column chromatography. […] The recombinant protein was pure and active as determined by the results of a kinase activity assay commercially available (such as ADP Glow® assay, […]). The same assay was used to determine the inhibition of the protein and the results are shown in Table 5 below (IC50 values or percent inhibition at a fixed concentration). Results confirmed that the compounds of the invention have low nanomolar IC50 values, interacting with PFKFB3 and inhibiting its enzymatic activity.
# LnCap = assay: Cell proliferation, MTT assay, 48 hours; format: cell-based; settings: Homo sapiens
# Experimental: (§1) The ability of the compounds described herein to kill or inhibit the proliferation of cancer cells was measured using either the MTT assay, or the Alamar Blue assay, or the Cell Titer Glow® assay using 48 or 72 hours exposure. […] The procedures are briefly described below. Cells of the desired tumor cell line were plated at 2×10^5 cells/ml in 96 well plates. Twice the indicated concentrations of the compounds of the invention were added to cells the following day in an equal volume of media. 72 hours later, cells were lysed and subjected to ATP determination using the CellTiter Glo-Luminescent Cell Viability Assay kit (Promega, Madison, Wis.). Experiments were done in triplicate. When using the MTT assay or the Alamar blue assay, the experimental conditions are essentially similar; at the end of the incubation period, 20 microliters of the MTT solution is added per well and the samples are incubated for an additional four hours, rinsed, and the absorbance at 570 nm measured. […] Table 2 lists the IC50 values for the compounds of the invention in several cell lines including Jurkat, Calu-6, NCI-H82, U937, HCT-116, and MDA-MB-231 cancer cell lines.
# CT26 = assay: Cell proliferation, MTT assay, 48 hours; format: cell-based; settings: Mus musculus
# Experimental: as §1
# SK-N-SH = assay: Cell proliferation, MTT assay, 48 hours; format: cell-based; settings: Homo sapiens
# Experimental: as §1
# [3] = aqueous with cosolvent or surfactant or cyclodextrin, Cre:EtOH:Saline 5:5:90 mixture, 1 hour at room temperature, read-out: Solubility Cre:EtOH:Saline
# [4] = ethanol, organic solvent or mixture, EtOH, 1 hour at room temperature, read-out: Solubility EtOH
# [5] = organic solvent or mixture, 1:1 cremophor EL-P:ethanol mixture, 1 hour at room temperature, read-out: Solubility Cre:EtOH
# [6] = organic solvent or mixture, Acetone, 1 hour at room temperature, read-out: Solubility Acetone
# [7] = organic solvent or mixture, Cremophor, 1 hour at room temperature, read-out: Solubility Cremophor
# [8] = organic solvent or mixture, DCM, 1 hour at room temperature, read-out: Solubility DCM
# [9] = organic solvent or mixture, Tween 80, 1 hour at room temperature, read-out: Solubility Tween 80
# [10] = organic solvent or mixture, Tween80:EtOH 6:4 mixture, 1 hour at room temperature, read-out: Solubility Twee80:EtOH
# [11] = 60 min incubation, 1.0 mg/ml microsomal protein, 1 mM NADPH, 37° C.
Structure (SMILES),"solubility at 1 h [1, 3] [µg/mL]","solubility at 1 h [1, 4] [µg/mL]","solubility at 1 h [1, 5] [µg/mL]","solubility at 1 h [1, 6] [µg/mL]","solubility at 1 h [1, 7] [µg/mL]","solubility at 1 h [1, 8] [µg/mL]","solubility at 1 h [1, 9] [µg/mL]","solubility at 1 h [1, 10] [µg/mL]",IC50 (U937) [µM],IC50 (Calu-6) [µM],IC50 (NCI-H82) [µM],IC50 (MDA-MB-231) [µM],IC50 (Jurkat) [µM],IC50 (HCT-116) [µM],"HLM, Mean metabolized (%) ([2]; 0 min)","HLM, Mean metabolized (%) [2, 11] [%]",inhibition at 5 µM (Jurkat cells) [%],inhibition at 0.25 µM (PFKFB3) [%],also measured
"O=C(c1ccncc1)c1cc2c(ccc3ccccc32)[nH]1 [ACT-PFK-095, (3H-Benzo[e]indol-2-yl)-pyridin-4-yl-methanone]",300,1600,10000,5000,6900,3400,7400,9700,0.05,0.208,0.498,0.395,1.5,2.4,0.0,26,48,26.2,"Cmax (Pharmacokinetics in rats; IV 10 mg/kg): 16932 ng/mL; T1/2b (Pharmacokinetics in rats; IV 10 mg/kg): 5.5 h; Vd (Pharmacokinetics in rats; IV 10 mg/kg): 2.5 L/kg; % F (from PO group) (Pharmacokinetics in rats; oral bioavailability, PO 10 mg/kg): 38%; AUC(0-inf) (Pharmacokinetics in rats; rat, plasma, IV 10 mg/kg): 1290 ng·h/mL"
"Nc1ccc(C(=O)c2cc3c(ccc4ccccc43)[nH]2)cc1 [ACT-PFK-112, (4-Amino-phenyl)-(3H-benzo[e]indol-2-yl)-methanone]",3700,7400,37600,8200,18600,14000,18100,35600,0.13,0.26,0.685,0.205,0.625,1.44,0.0,82.7,47,81.5,IC50 (LnCap): 1.03 µM; IC50 (CT26): 1.95 µM; IC50 (SK-N-SH): 0.305 µM
